Tested on: Bifidobacterium breve YIT 12272 (BbY)
Test: Culture of BbY in whey culture medium with L-cystine or L-cysteine
Type: cell-based
Settings: for concentration at which the viable cell count was maximum: whey simultaneous heating culture medium, 12 hours
Protocol: A skimmed milk powder was dissolved in RO water at 12% (w/v), and the 12% (w/v) skimmed milk was adjusted to a pH of 4.6 with 5 N HCl, followed by centrifugation at 3,000×g for 5 minutes. Subsequently, the supernatant was adjusted to a pH of 6.5 with 5 N NaOH and was centrifuged at 10,000×g for 15 to 30 minutes. The supernatant was dispensed in 10 mL aliquots in a rimmed medium-sized test tube while replacing the headspace with nitrogen gas and sealed with a butyl rubber stopper. Subsequently, the supernatant was sterilized by heat in an autoclave at 115° C. for 30 minutes to provide a whey culture medium separated before heating. In addition, as in the skimmed milk culture medium, simultaneous heating culture medium was prepared in anaerobic conditions by adding L-cystine or L-cysteine before heating and then performing heat sterilization. The addition concentration of L-cystine or L-cysteine was adjusted to 0.001, 0.003, 0.005, 0.01, 0.03, 0.05, or 0.1% (w/v) as the final concentration.
Inoculation and culture were performed as in Example 1 except that only when BbY was cultured in the skimmed milk culture medium, the culture time was 9 hours.
As in Example 2, whey separated before heating and simultaneous heating culture media with L-cysteine was prepared. In addition, a culture medium in which L-cysteine was added after heat sterilization and immediately before inoculation (individual heating culture medium) was also prepared. The addition concentration of L-cysteine was 0.03 (w/v) % as the final concentration.
A skimmed milk powder was dissolved in RO water at 12% (w/v), and the 12% (w/v) skimmed milk was sterilized by heat in an autoclave at 115° C. for 30 minutes in anaerobic conditions by nitrogen gas and was then adjusted to a pH of 4.6 with 5 N HCl, followed by centrifugation at 3,000×g for 5 minutes. Subsequently, the supernatant was adjusted to a pH of 6.5 with 5 N NaOH and was centrifuged at 10,000×g for 15 to 30 minutes. The supernatant was dispensed in 10 mL aliquots in a pre-sterilized rimmed medium-sized test tube while replacing the headspace with nitrogen gas and sealed with a butyl rubber stopper to provide a whey culture medium separated after heating. In addition, as in the skimmed milk culture media of Example 1, in anaerobic conditions, a culture medium in which L-cysteine was added before heating and then heat sterilization was performed (simultaneous heating culture medium) and a culture medium in which addition was performed after heat sterilization and before adjustment to pH 4.6 (individual heating culture medium) were also prepared.
Inoculation and culture were performed as in Example 1.
Based on the viable cell counts in (iii), each viable cell count ratio was calculated by dividing the viable cell count in the simultaneous heating culture medium by the viable cell count in the individual heating culture medium.

[1] = whey separated after heating, L-cysteine, individual heating, culture time 9 h
[2] = whey separated after heating, L-cysteine, individual heating, culture time 12 h
[3] = whey separated after heating, L-cysteine, simultaneous heating, culture time 9 h
[4] = whey separated after heating, L-cysteine, simultaneous heating, culture time 12 h
[5] = whey separated before heating, L-cysteine 0.03 (w/v) %, individual heating, culture time 9 h
[6] = whey separated before heating, L-cysteine 0.03 (w/v) %, individual heating, culture time 12 h
[7] = whey separated before heating, L-cysteine 0.03 (w/v) %, simultaneous heating, culture time 9 h
[8] = whey separated before heating, L-cysteine 0.03 (w/v) %, simultaneous heating, culture time 12 h

Cl.N[C@@H](CS)C(=O)O [L-cysteine, L-cysteine hydrochloride]
Acidity [1]: 3.43 ml/9 g
Viable cell count [1]: 8.89 × 10^8 CFU/ml
pH [1]: 5.14
Acidity [2]: 4.78 ml/9 g
Viable cell count [2]: 1.32 × 10^9 CFU/ml
pH [2]: 4.81
Acidity [3]: 4.23 ml/9 g
Viable cell count [3]: 1.29 × 10^9 CFU/ml
pH [3]: 4.85
Acidity [4]: 7.28 ml/9 g
Viable cell count [4]: 2.22 × 10^9 CFU/ml
pH [4]: 4.32
Viable cell count ratio (simultaneous/individual) (whey separated after heating, culture time 9 h): 1.45
Viable cell count ratio (simultaneous/individual) (whey separated after heating, culture time 12 h): 1.68
Acidity [5]: 2.15 ml/9 g
Viable cell count [5]: 1.24 × 10^8 CFU/ml
pH [5]: 4.97
Acidity [6]: 2.55 ml/9 g
Viable cell count [6]: 1.42 × 10^8 CFU/ml
pH [6]: 4.82
Acidity [7]: 2.15 ml/9 g
Viable cell count [7]: 2.53 × 10^8 CFU/ml
pH [7]: 5.01
Acidity [8]: 2.29 ml/9 g
Viable cell count [8]: 3.29 × 10^8 CFU/ml
pH [8]: 4.85
Viable cell count ratio (simultaneous/individual) (whey separated before heating, culture time 9 h): 2.04
Viable cell count ratio (simultaneous/individual) (whey separated before heating, culture time 12 h): 2.31
concentration at which the viable cell count was maximum: 0.01 % (w/v)

N[C@@H](CSSC[C@H](N)C(=O)O)C(=O)O [L-cystine]
concentration at which the viable cell count was maximum: 0.01 % (w/v)

— patent US12534699B2, “Method for promoting growth of bacteria of genus Bifidobacterium” (KABUSHIKI KAISHA YAKULT HONSHA, priority 2019, dated 2026)
